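All cell lines were grown in 96-well plates and treated with compound for 48 hours. TGI is the concentration that stops growth completely.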
Legend:
Assay in all cases: NCI anticancer screen, dose series, 48 h
SR leukemia = tested on: SR leukemia
HL-60(TB) leukemia = tested on: HL-60(TB) leukemia
TK-10 renal = tested on: TK-10 renal
SF-268 CNS = tested on: SF-268 CNS
SK-MEL-5 melanoma = tested on: SK-MEL-5 melanoma
EKVX NSCLC = tested on: EKVX NSCLC
UACC-62 melanoma = tested on: UACC-62 melanoma
M14 melanoma = tested on: M14 melanoma
NCI-H23 lung = tested on: NCI-H23 lung
HCC-2998 colon = tested on: HCC-2998 colon
RPMI-8226 leukemia = tested on: RPMI-8226 leukemia
HCT-15 colon = tested on: HCT-15 colon
LXFL 529 NSCLC = tested on: LXFL 529 NSCLC
KM20L2 colon = tested on: KM20L2 colon
OVCAR-4 ovarian = tested on: OVCAR-4 ovarian
UO-31 renal = tested on: UO-31 renal
RXF 393 renal = tested on: RXF 393 renal
DMS 273 small cell lung = tested on: DMS 273 small cell lung
K-562 leukemia = tested on: K-562 leukemia
SK-MEL-28 melanoma = tested on: SK-MEL-28 melanoma
LOX IMVI melanoma = tested on: LOX IMVI melanoma
SNB-19 CNS = tested on: SNB-19 CNS
SNB-78 CNS = tested on: SNB-78 CNS
HOP-18 NSCLC = tested on: HOP-18 NSCLC
OVCAR-3 ovarian = tested on: OVCAR-3 ovarian
HT29 colon = tested on: HT29 colon
CCRF-CEM leukemia = tested on: CCRF-CEM leukemia
SN12C renal = tested on: SN12C renal
DMS 114 small cell lung = tested on: DMS 114 small cell lung
SK-MEL-2 melanoma = tested on: SK-MEL-2 melanoma
OVCAR-8 ovarian = tested on: OVCAR-8 ovarian
U251 CNS = tested on: U251 CNS
M19-MEL melanoma = tested on: M19-MEL melanoma
HCT-116 colon = tested on: HCT-116 colon
UACC-257 melanoma = tested on: UACC-257 melanoma
HOP-92 NSCLC = tested on: HOP-92 NSCLC
IGROV1 ovarian = tested on: IGROV1 ovarian
KM12 colon = tested on: KM12 colon
COLO 205 colon = tested on: COLO 205 colon
SNB-75 CNS = tested on: SNB-75 CNS
HOP-62 NSCLC = tested on: HOP-62 NSCLC
A549 NSCLC = tested on: A549 NSCLC
SF-539 CNS = tested on: SF-539 CNS
SW-620 colon = tested on: SW-620 colon
OVCAR-5 ovarian = tested on: OVCAR-5 ovarian
ACHN renal = tested on: ACHN renal
MOLT-4 leukemia = tested on: MOLT-4 leukemia
NCI-H460 lung = tested on: NCI-H460 lung
786-0 renal = tested on: 786-0 renal
SF-295 CNS = tested on: SF-295 CNS
MALME-3M melanoma = tested on: MALME-3M melanoma
NCI-H522 lung = tested on: NCI-H522 lung
XF 498 CNS = tested on: XF 498 CNS
DLD-1 colon = tested on: DLD-1 colon
A498 renal = tested on: A498 renal
SK-OV-3 ovarian = tested on: SK-OV-3 ovarian

## O=C(O)CC/C(=N\Nc1nsc2ccccc12)c1ccccc1
SR leukemia
  TGI: 93.3 µM
HL-60(TB) leukemia
  TGI: 71.9 µM
TK-10 renal
  TGI: > 100 µM
SF-268 CNS
  TGI: > 100 µM
SK-MEL-5 melanoma
  TGI: > 100 µM
EKVX NSCLC
  TGI: > 100 µM
UACC-62 melanoma
  TGI: > 100 µM
M14 melanoma
  TGI: > 100 µM
NCI-H23 lung
  TGI: 95.8 µM
HCC-2998 colon
  TGI: 90.8 µM
RPMI-8226 leukemia
  TGI: 49.6 µM
HCT-15 colon
  TGI: > 100 µM
LXFL 529 NSCLC
  TGI: > 100 µM
KM20L2 colon
  TGI: > 100 µM
OVCAR-4 ovarian
  TGI: > 100 µM
UO-31 renal
  TGI: > 100 µM
RXF 393 renal
  TGI: > 100 µM
DMS 273 small cell lung
  TGI: 67.3 µM
K-562 leukemia
  TGI: > 100 µM
SK-MEL-28 melanoma
  TGI: > 100 µM
LOX IMVI melanoma
  TGI: > 100 µM
SNB-19 CNS
  TGI: > 100 µM
SNB-78 CNS
  TGI: > 100 µM
HOP-18 NSCLC
  TGI: > 100 µM
OVCAR-3 ovarian
  TGI: 75.3 µM
HT29 colon
  TGI: > 100 µM
CCRF-CEM leukemia
  TGI: 96.7 µM
SN12C renal
  TGI: > 100 µM
DMS 114 small cell lung
  TGI: 82 µM
SK-MEL-2 melanoma
  TGI: > 100 µM
OVCAR-8 ovarian
  TGI: > 100 µM
U251 CNS
  TGI: > 100 µM
M19-MEL melanoma
  TGI: > 100 µM
HCT-116 colon
  TGI: > 100 µM
UACC-257 melanoma
  TGI: > 100 µM
HOP-92 NSCLC
  TGI: > 100 µM
IGROV1 ovarian
  TGI: > 100 µM
KM12 colon
  TGI: > 100 µM
COLO 205 colon
  TGI: > 100 µM
SNB-75 CNS
  TGI: 61.3 µM
HOP-62 NSCLC
  TGI: > 100 µM
A549 NSCLC
  TGI: > 100 µM
SF-539 CNS
  TGI: > 100 µM
SW-620 colon
  TGI: > 100 µM
OVCAR-5 ovarian
  TGI: > 100 µM
ACHN renal
  TGI: > 100 µM
MOLT-4 leukemia
  TGI: 91.6 µM
NCI-H460 lung
  TGI: > 100 µM

## O=C(N/N=C/c1ccccc1O)c1cccc([N+](=O)[O-])c1
786-0 renal
  TGI: > 100 µM
SR leukemia
  TGI: > 100 µM
SF-295 CNS
  TGI: 68.3 µM
HL-60(TB) leukemia
  TGI: > 39.3 µM
TK-10 renal
  TGI: > 84.6 µM
SF-268 CNS
  TGI: > 100 µM
SK-MEL-5 melanoma
  TGI: > 61.3 µM
EKVX NSCLC
  TGI: 82.8 µM
MALME-3M melanoma
  TGI: > 100 µM
NCI-H522 lung
  TGI: > 100 µM
UACC-62 melanoma
  TGI: > 70.8 µM
M14 melanoma
  TGI: 43.2 µM
NCI-H23 lung
  TGI: > 95.5 µM
HCC-2998 colon
  TGI: > 100 µM
RPMI-8226 leukemia
  TGI: > 100 µM
HCT-15 colon
  TGI: > 100 µM
LXFL 529 NSCLC
  TGI: > 100 µM
KM20L2 colon
  TGI: > 100 µM
OVCAR-4 ovarian
  TGI: > 100 µM
XF 498 CNS
  TGI: > 100 µM
UO-31 renal
  TGI: 56.5 µM
RXF 393 renal
  TGI: > 88.9 µM
DMS 273 small cell lung
  TGI: > 100 µM
K-562 leukemia
  TGI: > 100 µM
SK-MEL-28 melanoma
  TGI: > 100 µM
LOX IMVI melanoma
  TGI: > 81.4 µM
SNB-19 CNS
  TGI: > 100 µM
SNB-78 CNS
  TGI: > 100 µM
HOP-18 NSCLC
  TGI: > 100 µM
OVCAR-3 ovarian
  TGI: 6.73 µM
HT29 colon
  TGI: > 100 µM
CCRF-CEM leukemia
  TGI: > 100 µM
SN12C renal
  TGI: > 100 µM
DMS 114 small cell lung
  TGI: 39.3 µM
DLD-1 colon
  TGI: > 100 µM
SK-MEL-2 melanoma
  TGI: > 100 µM
OVCAR-8 ovarian
  TGI: > 100 µM
U251 CNS
  TGI: > 100 µM
M19-MEL melanoma
  TGI: 66.2 µM
HCT-116 colon
  TGI: > 100 µM
UACC-257 melanoma
  TGI: > 60.6 µM
A498 renal
  TGI: > 100 µM
IGROV1 ovarian
  TGI: 79.6 µM
KM12 colon
  TGI: > 100 µM
COLO 205 colon
  TGI: > 100 µM
SK-OV-3 ovarian
  TGI: > 78.3 µM
A549 NSCLC
  TGI: > 100 µM
SF-539 CNS
  TGI: > 82.1 µM
SW-620 colon
  TGI: > 100 µM
OVCAR-5 ovarian
  TGI: > 100 µM
ACHN renal
  TGI: > 100 µM
MOLT-4 leukemia
  TGI: > 100 µM
NCI-H460 lung
  TGI: > 100 µM

Reference: PubChem BioAssay (NCI)
